Laboratory results taken from PMC10607160 (International Journal of Molecular Sciences, 2023).
pIC50: −log10 of the molar value.

Experiments:
[1] = molecular target: E. coli Trx1 / E. coli TrxR (thioredoxin system) (Escherichia coli, UniProt P0AA25); assay: Disulfide bond reduction assay by EcoTrx1 (NADPH absorbance at 340 nm); assay type: biochemical; conditions: for Absorbance Asample1 / Absorbance Asample2 / Absorbance Average1, 2: A340, with TrxR
Protocol: The assay employed was based on changes in the absorbance at 340 nm from the oxidation of NADPH using a modified version of the protocol laid out in [90]. Briefly, the decrease in A340 was measured in 96-well plates containing 100 μL of 200 mM potassium phosphate pH 7.4, 1 mM EDTA, 0.1 mg/mL BSA, 200 μM NADPH, 2 μM E. coli Trx1 and 10 nM E. coli TrxR for 5 min at 25 °C with insulin at a final concentration of 0.067 mM (0.2 mM disulfides) (see Table S2). The reduction of con7 was measured at a final concentration of 0.2 mM (see Table S3). Blanks were samples without EcoTrxR.
Figure 4 Reduction of (A) con7 and (B) insulin by EcoTrx1. The assay mixture contains 200 mM potassium phosphate pH 7.4, 1 mM EDTA, 0.1 mg/mL BSA, 200 μM NADPH, 2 μM Escherichia coli Trx1, 10 nM E. coli TrxR, (A) 0.2 mM con7 or (B) 0.067 mM (0.2 mM disulfides) insulin. The reaction was carried out at 25 °C by monitoring the decrease of NADPH absorbance at 340 nm for (A) con7 in the absence ( [drawing 1] ) or presence of TrxR ( [drawing 2] ) and (B) insulin in the absence ( [drawing 3] ) or presence of TrxR ( [drawing 4] ).

human GnRHR I = molecular target: T1, human GnRHR I (Homo sapiens, UniProt P30968); assay: Competitive radioligand binding (125I-DTyr6-His5-GnRH) on membranes from HEK 293 cells stably expressing GnRHR I; conditions: competition with 125I-DTyr6-His5-GnRH, HEK 293 membranes, 4 °C 16-19 h, one-site model; read-out: apparent binding affinity (IC50)
T1 construct: expressed in transfected cells
T1 sequence (P30968 1-328): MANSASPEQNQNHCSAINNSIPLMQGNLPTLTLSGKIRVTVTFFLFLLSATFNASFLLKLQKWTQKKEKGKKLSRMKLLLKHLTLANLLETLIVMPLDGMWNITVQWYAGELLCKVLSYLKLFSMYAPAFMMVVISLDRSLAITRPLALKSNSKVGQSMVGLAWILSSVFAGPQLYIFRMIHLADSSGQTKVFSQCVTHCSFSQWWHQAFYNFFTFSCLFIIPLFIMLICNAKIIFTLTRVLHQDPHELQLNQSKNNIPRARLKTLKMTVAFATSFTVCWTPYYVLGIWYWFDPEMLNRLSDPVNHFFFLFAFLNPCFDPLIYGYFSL

[2] = Solubility issue noted in the binding experiments; assay type: physicochemical; conditions: in binding assay
Protocol: The data were fitted to a one-site competition model via nonlinear regression and the IC50 values were determined as described in Section 3.4.

Sequence of E. coli Trx1 / E. coli TrxR (thioredoxin system) (P0AA25 2-109): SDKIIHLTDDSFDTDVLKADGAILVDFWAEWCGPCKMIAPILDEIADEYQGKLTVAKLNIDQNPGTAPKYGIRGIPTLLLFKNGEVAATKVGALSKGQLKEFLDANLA

CCNC(=O)[C@@H]1CCCN1C(=O)[C@H](CCCNC(=N)N)NC(=O)[C@H](CC(C)C)NC(=O)[C@@H](CCCCNC(=O)CCCCCNC(=O)CCSSCC(=O)OCCNCCNc1ccc(NCCNCCO)c2c1C(=O)c1c(O)ccc(O)c1C2=O)NC(=O)[C@H](Cc1ccc(O)cc1)NC(=O)[C@H](CO)NC(=O)[C@H](Cc1c[nH]c2ccccc12)NC(=O)[C@H](Cc1c[nH]cn1)NC(=O)[C@@H]1CCC(=O)N1 [con7]
speed of reduction compared with insulin ([1]; 0.2 mM con7 vs 0.067 mM insulin (0.2 mM disulfides), 25 °C): more rapid
Absorbance Asample1 ([1]; 0 sec): 1.004
Absorbance Asample2 ([1]; 0 sec): 0.982
Absorbance Average1, 2 ([1]; 0 sec): 0.993
Absorbance Asample1 ([1]; 9 sec): 1.004
Absorbance Asample2 ([1]; 9 sec): 0.980
Absorbance Average1, 2 ([1]; 9 sec): 0.992
Absorbance Asample1 ([1]; 18 sec): 1.004
Absorbance Asample2 ([1]; 18 sec): 0.981
Absorbance Average1, 2 ([1]; 18 sec): 0.992
Absorbance Asample1 ([1]; 27 sec): 1.003
Absorbance Asample2 ([1]; 27 sec): 0.980
Absorbance Average1, 2 ([1]; 27 sec): 0.991
Absorbance Asample1 ([1]; 36 sec): 1.002
Absorbance Asample2 ([1]; 36 sec): 0.978
Absorbance Average1, 2 ([1]; 36 sec): 0.990
Absorbance Asample1 ([1]; 45 sec): 1.000
Absorbance Asample2 ([1]; 45 sec): 0.979
Absorbance Average1, 2 ([1]; 45 sec): 0.989
Absorbance Asample1 ([1]; 54 sec): 1.000
Absorbance Asample2 ([1]; 54 sec): 0.977
Absorbance Average1, 2 ([1]; 54 sec): 0.988
Absorbance Asample1 ([1]; 63 sec): 0.999
Absorbance Asample2 ([1]; 63 sec): 0.977
Absorbance Average1, 2 ([1]; 63 sec): 0.988
Absorbance Asample1 ([1]; 72 sec): 0.999
Absorbance Asample2 ([1]; 72 sec): 0.976
Absorbance Average1, 2 ([1]; 72 sec): 0.987
Absorbance Asample1 ([1]; 81 sec): 0.998
Absorbance Asample2 ([1]; 81 sec): 0.973
Absorbance Average1, 2 ([1]; 81 sec): 0.985
Absorbance Asample1 ([1]; 90 sec): 0.997
Absorbance Asample2 ([1]; 90 sec): 0.974
Absorbance Average1, 2 ([1]; 90 sec): 0.985
Absorbance Asample1 ([1]; 99 sec): 0.996
Absorbance Asample2 ([1]; 99 sec): 0.972
Absorbance Average1, 2 ([1]; 99 sec): 0.984
Absorbance Asample1 ([1]; 108 sec): 0.996
Absorbance Asample2 ([1]; 108 sec): 0.971
Absorbance Average1, 2 ([1]; 108 sec): 0.983
Absorbance Asample1 ([1]; 117 sec): 0.995
Absorbance Asample2 ([1]; 117 sec): 0.971
Absorbance Average1, 2 ([1]; 117 sec): 0.983
Absorbance Asample1 ([1]; 126 sec): 0.994
Absorbance Asample2 ([1]; 126 sec): 0.970
Absorbance Average1, 2 ([1]; 126 sec): 0.982
Absorbance Asample1 ([1]; 135 sec): 0.992
Absorbance Asample2 ([1]; 135 sec): 0.968
Absorbance Average1, 2 ([1]; 135 sec): 0.980
Absorbance Asample1 ([1]; 144 sec): 0.991
Absorbance Asample2 ([1]; 144 sec): 0.967
Absorbance Average1, 2 ([1]; 144 sec): 0.979
Absorbance Asample1 ([1]; 153 sec): 0.990
Absorbance Asample2 ([1]; 153 sec): 0.966
Absorbance Average1, 2 ([1]; 153 sec): 0.978
Absorbance Asample1 ([1]; 162 sec): 0.990
Absorbance Asample2 ([1]; 162 sec): 0.966
Absorbance Average1, 2 ([1]; 162 sec): 0.978
Absorbance Asample1 ([1]; 171 sec): 0.989
Absorbance Asample2 ([1]; 171 sec): 0.964
Absorbance Average1, 2 ([1]; 171 sec): 0.977
Absorbance Asample1 ([1]; 180 sec): 0.989
Absorbance Asample2 ([1]; 180 sec): 0.965
Absorbance Average1, 2 ([1]; 180 sec): 0.977
Absorbance Asample1 ([1]; 189 sec): 0.989
Absorbance Asample2 ([1]; 189 sec): 0.964
Absorbance Average1, 2 ([1]; 189 sec): 0.977
Absorbance Asample1 ([1]; 198 sec): 0.988
Absorbance Asample2 ([1]; 198 sec): 0.962
Absorbance Average1, 2 ([1]; 198 sec): 0.975
Absorbance Asample1 ([1]; 207 sec): 0.986
Absorbance Asample2 ([1]; 207 sec): 0.961
Absorbance Average1, 2 ([1]; 207 sec): 0.974
Absorbance Asample1 ([1]; 216 sec): 0.987
Absorbance Asample2 ([1]; 216 sec): 0.960
Absorbance Average1, 2 ([1]; 216 sec): 0.974
Absorbance Asample1 ([1]; 225 sec): 0.985
Absorbance Asample2 ([1]; 225 sec): 0.959
Absorbance Average1, 2 ([1]; 225 sec): 0.972
Absorbance Asample1 ([1]; 234 sec): 0.984
Absorbance Asample2 ([1]; 234 sec): 0.957
Absorbance Average1, 2 ([1]; 234 sec): 0.971
Absorbance Asample1 ([1]; 243 sec): 0.984
Absorbance Asample2 ([1]; 243 sec): 0.955
Absorbance Average1, 2 ([1]; 243 sec): 0.970
Absorbance Asample1 ([1]; 252 sec): 0.982
Absorbance Asample2 ([1]; 252 sec): 0.954
Absorbance Average1, 2 ([1]; 252 sec): 0.968
Absorbance Asample1 ([1]; 261 sec): 0.982
Absorbance Asample2 ([1]; 261 sec): 0.952
Absorbance Average1, 2 ([1]; 261 sec): 0.967
Absorbance Asample1 ([1]; 270 sec): 0.980
Absorbance Asample2 ([1]; 270 sec): 0.952
Absorbance Average1, 2 ([1]; 270 sec): 0.966
Absorbance Asample1 ([1]; 279 sec): 0.981
Absorbance Asample2 ([1]; 279 sec): 0.951
Absorbance Average1, 2 ([1]; 279 sec): 0.966
Absorbance Asample1 ([1]; 288 sec): 0.979
Absorbance Asample2 ([1]; 288 sec): 0.949
Absorbance Average1, 2 ([1]; 288 sec): 0.964
Absorbance Asample1 ([1]; 297 sec): 0.978
Absorbance Asample2 ([1]; 297 sec): 0.949
Absorbance Average1, 2 ([1]; 297 sec): 0.963
reduction of disulfide bond by the thioredoxin system ([1]; decrease of NADPH absorbance over time in samples containing TrxR): successful
pIC50 (human GnRHR I): 10.22

CCNC(=O)[C@@H]1CCCN1C(=O)[C@H](CCCNC(=N)N)NC(=O)[C@H](CC(C)C)NC(=O)[C@@H](CSSCC(=O)NCCCCNc1ccc(O)c2c1C(=O)c1ccccc1C2=O)NC(=O)[C@H](Cc1ccc(O)cc1)NC(=O)[C@H](CO)NC(=O)[C@H](Cc1c[nH]c2ccccc12)NC(=O)[C@H](Cc1c[nH]cn1)NC(=O)[C@@H]1CCC(=O)N1 [con4]
solubility [2]: solubility issues
